For one data set, the system named is Lipid deposits. The data set is described as follows: Oil red O histochemistry (lipid deposits). The data set is classed as in vivo, CD-1 mice. The protocol: (§1) The synthetic SG was mixed with finely ground Purina Chow mouse pellets (Mouse Diet™, Purina) to create the experimental pellets with a SG content of 1000 µg per pellet. Dry materials were blended with a sterile silicon spatula. For every 5 g of standard feed, 2.5 mL of doubly-distilled water (dd)H2O was added and the dough was kneaded and round up into pellets. A single sterol glucoside containing pellet was placed in the feeding tray each morning before the addition of regular mouse chow (ad libitum). All experimental pellets were entirely consumed by the mice each day. Control mice were fed standard mouse chow pellets of identical weight with no additives. SG feeding was conducted daily for 15 weeks and mice were behaviorally monitored until sacrifice at 35 weeks (time point 1) or 52 weeks (time point 2).
Tissue-mounted slides were processed to evaluate lipid distribution with light microscopy with a protocol adapted from Dr. Roy Ellis (IMVS Division of Pathology, The Queen Elizabeth Hospital, Woodville, South Australia). First, an oil red O stock solution was prepared 2 hours prior to execution of the histochemical procedures. The oil red O stock stain solution was made by mixing oil red O (0.5 g, Sigma-Aldrich, Oakville, ON, Canada) and isopropanol (100 mL, Fisher Scientific, Nepean, ON, Canada) over a 40°C water bath. Immediately prior to beginning the oil red O histochemical procedures, the oil red O working solution was made by combining 20 mL of distilled water for every 30 mL of oil red O stock stain solution. […] Slide-mounted sections were rinsed in coplin jars for 15 minutes at RT in three changes of PBS. Sections were then rinsed at RT with 60% isopropanol for 5 minutes. The spinal cord sections were then stained with a freshly prepared working solution of oil red O for 20 minutes and then rinsed with 60% isopropanol. Nuclear counterstaining was achieved by staining the sections with haematoxylin (haematoxylin, 7211, Richard Allan Scientific, Kalamazoo, MI, USA) for 1 minute. Finally, the sections were rinsed with distilled water, dried under a fume hood and cover-slipped with Entellen (Merck, Darmstadt, Germany).
The numbers of immunoreactive somata or inclusions were counted across the ventral horn of the spinal cord, across brain hemispheres, or per dorsal or ventral root with the 40x objective lens in a 600 µm / 600 µm area within region perimeters defined by a mouse brain atlas (2001). For each animal, eight cross-sections per spinal cord or brain region were studied. An average of both the right and left ventral horn for each of the eight cross sections was generated giving a final averaged number for each animal in each of the spinal cord areas. For quantification of the level of mitochondrial activity (cytochrome c oxidase labelling) in the lumbar spinal cord or tyrosine hydroxylase immunoreactivity in the substantia nigra pars compacta and striatal sections, images captured using the Motic B5 Professional Series 3.0 microscope (Motic Instruments Inc., Richmond, ON) and analyzed using Motic B5 Professional, Motic Images Advanced 3.0 (Motic Instruments Inc., Richmond, ON) were scanned into a TIFF format file and analysed using the NIH Image J 1.37 software to measure density levels of antibody labelling. Eight to 12 sections from each mouse per region of interest were included.

For data set [1], the system named is Phosphorylated TDP-43 aggregates. The data set is described as follows: TDP-43 immunofluorescence. The data set is classed as in vivo, CD-1 mice. The arrangement: key to Phosphorylated TDP-43 aggregates: - = not present; + = present. As to conditions: for Phosphorylated TDP-43 aggregates: SG-fed. The protocol: as §1
Tissue-mounted slides were processed for fluorescence microscopy as follows: Sections were rinsed in coplin jars for 45 minutes at room temperature (RT) in three changes of PBS. Sections were then incubated at RT for 30 minutes in a blocking permeabilization solution made of 5% normal goat serum (NGS), 5% normal rabbit serum (NRS) or 5% BlokHen II (Aves Labs, Inc., Tigard, OR), 0.05% Triton X-100 and PBS. Subsequently, the blocking solution was tipped off and the slides were rinsed in PBS for 2 minutes. Sections were then incubated overnight in a humidified chamber at 4°C with a PBS buffered solution that contained 1% NGS or 1% NRS, 1% bovine serum albumin (BSA) and one of the following primary antibodies: (a) rabbit anti-human/mouse ATF-3 (H-90) IgG (polyclonal, 1:500; Santa Cruz Biotechnology, Inc., Santa Cruz, CA), (b) anti-activated caspase-3 IgG (monoclonal, 1:250; Chemicon International, Temecula, CA) (see FIGURE 9), (c) goat antihuman/ mouse choline acetyl transferase (ChAT) IgG (polyclonal, 1:100; Chemicon International, Temecula, CA) (see FIGURE 6), (d) rabbit anti-mouse glial fibrillary acidic protein IgG (polyclonal, 1:250; GeneTex Inc., San Antonio, TX) (see FIGURE 7), (e) rabbit antihuman/ mouse ionized calcium binding adaptor molecule 1 (IBA-1) IgG (polyclonal, 1:500; Wako Pure Chemical Industries, Ltd, Richmond, VA), (f) mouse anti-human/mouse clone AT8 PHF-1 Tau (monoclonal, 1:200; Pierce Biotechnology Inc., Rockford, IL), (g) rabbit anti-human/mouse TAR DNA-binding protein 43 (TDP43) (1:100; ProteinTech Group Inc., Chicago, IL) (See FIGURE 14), (h) chicken anti-human/mouse β-tubulin 3 (TuJ1 antigen) (polyclonal, 1:100, Aves Labs, Inc., Tigard, OR), (i) rabbit anti-mouse tyrosine hydroxylase (polyclonal, 1:500, Chemicon International, Temecula, CA or polyclonal 1:1000, Affinity BioReagents, Golden, CO) (FIGURE 10), (j) rabbit anti human/mouse anti-pJunser73 IgG (polyclonal, 1:200; Chemicon International, Temecula, CA), (k) rabbit anti human/mouse anti-HSP-70 IgG (polyclonal, 1:200; Chemicon International, Temecula, CA), or (1) rabbit anti human/mouse anti-HSP-25 IgG (polyclonal, 1:100; Chemicon International, Temecula, CA). In each experiment, additional slides were incubated with the primary antibody and the secondary antibody omitted or with secondary antibody and primary antibody omitted to test for nonspecific staining. Where appropriate, positive control slides (Alzheimer's disease patient entorhinal cortex, obtained from Drs. Claudia Schwab and Patrick McGeer of the Kinsmen Laboratory, University of British Columbia, Vancouver, BC, Canada) were also processed as above for comparison. […]

Where “and” joins values, the source holds several entries; their conditions need not be identical. Identical values can stand only once. Marks after values point to notes of the source that are not given here.

Consider `CCC(C=CC(C)C1CCC2C3CC=C4CC(OC5OC(CO)C(O)C(O)C5O)CCC4(C)C3CCC12C)C(C)C` (centres unmarked) [SG], for which, in the data set on Lipid deposits (SG-fed animals, 35 to 52 weeks), the “accumulation of lipid deposits over time, lumbar spinal cord” value is listed as “did not experience an accumulation of deposits over time” and the “lipid deposits, time-dependent effects in the dorsal or ventral roots” value is listed as “did not show time-dependent effects”. In the data set with Lipid deposits (SG-fed over time, 35 to 52 wk), the “Lipid deposits, DR” value is on record as “SG-fed DR over time: ns, p=0.8062”; the “Lipid deposits, Lsc” value is on record as “SG-fed Lsc over time: ns, p=0.4864”; the “Lipid deposits, VR” value was “SG-fed VR over time: ns, p=0.5478”. For the same compound, in the data set with Lipid deposits (SG-fed vs control, 35 weeks), the “lipids in the dorsal roots” value is “not significant” and the “lipids in the ventral spinal roots” value is listed as “+10%”. In addition, in the data set on Lipid deposits (SG-fed vs control, 52 weeks), the “lipid deposits, inter-group differences in lumbar spinal cord, dorsal root, ventral root” value is on record as “statistically significant inter-group differences were not found”. Also, the “Lipids deposits Lsc VH” value in the data set on Lipid deposits (SG-fed vs control, time-point 2, 52 wk) is “Lipids deposits Lsc VH: +10%*”. Also, the “pathologic phosphorylated TDP-43-containing aggregates in the lumbar spinal cord” value in data set [1] (SG-fed animals) is “increased”. In data set [1] (SG-fed animals at 35 weeks), the “translocation of TDP-43” value is “No abnormal translocation”. Moreover, the “Phosphorylated TDP-43 aggregates / TDP-43 pathology, animals affected” value in data set [1] (SG-fed group, time-point 2, 52 wk) was “Two of eight and 2/8”. The “Phosphorylated TDP-43 aggregates” value in data set [1] (time-point 1, 35 wk) was “-”. The “Phosphorylated TDP-43 aggregates” value in data set [1] (time-point 2, 52 wk) was “+”.

These data come from patent publication EP2181589A1, “Neurotoxic sterol glycosides” (Shaw, Christopher Ariel, priority 2008, dated 2010).
